# Measurements from patent US8450313B2, “2,3-diaryl- or heteroaryl-substituted 1,1,1-trifluoro-2-hydroxypropyl compounds” (Hoffmann-La Roche Inc., priority 2009, dated 2013).
# Biological target: T1, full length human recombinant glucocorticoid receptor (Homo sapiens, UniProt P04150)
# T1 construct: It contains some partially purified full length human recombinant glucocorticoid receptor; purchased Panvera/Invitrogen PV4302
# T1 sequence (P04150 1-777): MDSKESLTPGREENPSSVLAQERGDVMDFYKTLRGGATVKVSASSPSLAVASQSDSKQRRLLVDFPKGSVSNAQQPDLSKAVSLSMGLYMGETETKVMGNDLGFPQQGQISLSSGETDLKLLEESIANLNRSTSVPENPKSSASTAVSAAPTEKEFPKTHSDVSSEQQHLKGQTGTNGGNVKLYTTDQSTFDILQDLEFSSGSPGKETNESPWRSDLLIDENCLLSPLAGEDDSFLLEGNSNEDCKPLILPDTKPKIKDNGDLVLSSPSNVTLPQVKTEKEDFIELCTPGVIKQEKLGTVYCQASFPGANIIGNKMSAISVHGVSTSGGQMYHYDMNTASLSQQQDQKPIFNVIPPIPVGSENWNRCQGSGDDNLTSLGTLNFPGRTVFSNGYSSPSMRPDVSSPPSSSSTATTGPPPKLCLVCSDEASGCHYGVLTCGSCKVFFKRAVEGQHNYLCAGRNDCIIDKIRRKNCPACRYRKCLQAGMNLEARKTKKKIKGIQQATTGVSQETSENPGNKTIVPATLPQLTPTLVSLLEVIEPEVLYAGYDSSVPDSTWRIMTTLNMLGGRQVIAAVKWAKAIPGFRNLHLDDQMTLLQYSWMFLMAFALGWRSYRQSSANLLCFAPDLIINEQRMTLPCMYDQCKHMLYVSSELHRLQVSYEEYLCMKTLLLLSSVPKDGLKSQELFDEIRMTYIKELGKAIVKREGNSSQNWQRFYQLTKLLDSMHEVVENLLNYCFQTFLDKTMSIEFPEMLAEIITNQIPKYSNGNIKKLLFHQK
# Experiment: Glucocorticoid Receptor Binding Assay (Glucocorticoid Receptor Competitor Assay far red kit, fluorescence polarization)
# Conditions: competition with fluorescent GR ligand Fluormone GS Far Red, 3 hours at 22° C., pH 7.4; Ki calculated from IC50 by Cheng-Prusoff
# In short: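 Compounds in serial dilution (from intermediate 4.2% DMSO stock) displace Fluormone GS Far Red from full-length human recombinant GR with stabilizing peptide, pH 7.4, incubated 3 hours at 22° C dark. Polarized fluorescence (610–660 nm) gives IC50 via sigmoidal fit, converted to Ki by Cheng-Prusoff.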
row,Compound,Ki [nM]
1,"C[C@H](c1ccc(Oc2ncc(C(=O)O)cn2)cc1Cl)[C@@](O)(c1ccc2oc(=O)n(C)c2c1)C(F)(F)F (relative stereo) [Example 203, 2-{3-Chloro-4-[3,3,3-trifluoro-2-hydroxy-1-methyl-2-(3-methyl-2-oxo-2,3-dihydro-benzooxazol-5-yl)-propyl]-phenoxy}-pyrimidine-5-carboxylic acid]",1.8
2,"COC(=O)c1ccc(Oc2ccc([C@@H](C)[C@@](O)(c3ccc4c(c3)N(C)C(=O)CO4)C(F)(F)F)c(Cl)c2)cc1Cl (single isomer, unassigned) [Example 216]",60.2
3,"COC(=O)c1ccc(Oc2ccc([C@H](C)[C@](O)(c3ccc4c(c3)N(C)C(=O)CO4)C(F)(F)F)c(Cl)c2)cc1Cl (single isomer, unassigned) [Example 217]",1
4,"COC(=O)c1cnc(Oc2ccc([C@H](C)[C@](O)(c3ccc4c(c3)N(C)C(=O)CO4)C(F)(F)F)c(Cl)c2)c(Cl)c1 (single isomer, unassigned) [Example 222]",1.6
5,"CCOC(=O)c1ccc(COc2ccc(Cl)c([C@H](C)[C@](O)(c3ccc4c(c3)N(C)C(=O)CO4)C(F)(F)F)c2)cc1 (stereo in doubt) [Example 1, 4-{4-Chloro-3-[3,3,3-trifluoro-2-hydroxy-1-methyl-2-(4-methyl-3-oxo-3,4-dihydro-2H-benzo[1,4]oxazin-6-yl)-propyl]-phenoxymethyl}-benzoic acid ethyl ester]",9.7
6,"CCOC(=O)COc1ccc(Cl)c([C@H](C)[C@](O)(c2ccc3c(c2)N(C)C(=O)CO3)C(F)(F)F)c1 (stereo in doubt) [Example 3, {4-Chloro-3-[3,3,3-trifluoro-2-hydroxy-1-methyl-2-(4-methyl-3-oxo-3,4-dihydro-2H-benzo[1,4]oxazin-6-yl)-propyl]-phenoxy}-acetic acid ethyl ester]",9.2
7,"C[C@@H](c1cc(Oc2cccc(C(=O)O)c2)ccc1Cl)[C@](O)(c1ccc2c(c1)N(C)C(=O)CO2)C(F)(F)F (stereo in doubt) [Example 6, 3-{4-Chloro-3-[3,3,3-trifluoro-2-hydroxy-1-methyl-2-(4-methyl-3-oxo-3,4-dihydro-2H-benzo[1,4]oxazin-6-yl)-propyl]-phenoxy}-benzoic acid]",4.8
8,"C[C@@H](c1ccc(-c2ccc(C(=O)O)cc2)cc1Cl)[C@](O)(c1ccc2c(c1)N(C)C(=O)CO2)C(F)(F)F (stereo in doubt) [Example 22, 3′-Chloro-4′-[3,3,3-trifluoro-2-hydroxy-1-methyl-2-(4-methyl-3-oxo-3,4-dihydro-2H-benzo[1,4]oxazin-6-yl)-propyl]-biphenyl-4-carboxylic acid]",2.9
9,"C[C@@H](c1ccc(-c2cccc(C(=O)O)c2)cc1Cl)[C@](O)(c1ccc2c(c1)N(C)C(=O)CO2)C(F)(F)F (stereo in doubt) [Example 23, 3′-Chloro-4′-[3,3,3-trifluoro-2-hydroxy-1-methyl-2-(4-methyl-3-oxo-3,4-dihydro-2H-benzo[1,4]oxazin-6-yl)-propyl]-biphenyl-3-carboxylic acid]",1.3
10,"C[C@@H](c1ccc(-c2ccc(C(=O)O)cc2F)cc1Cl)[C@](O)(c1ccc2c(c1)N(C)C(=O)CO2)C(F)(F)F (stereo in doubt) [Example 34, 3′-Chloro-2-fluoro-4′-[3,3,3-trifluoro-2-hydroxy-1-methyl-2-(4-methyl-3-oxo-3,4-dihydro-2H-benzo[1,4]oxazin-6-yl)-propyl]-biphenyl-4-carboxylic acid]",7.8
11,"C[C@@H](c1ccc(-c2ccc(Cl)c(C(=O)O)c2)cc1Cl)[C@](O)(c1ccc2c(c1)N(C)C(=O)CO2)C(F)(F)F (stereo in doubt) [Example 40, 4,3′-Dichloro-4′-[3,3,3-trifluoro-2-hydroxy-1-methyl-2-(4-methyl-3-oxo-3,4-dihydro-2H-benzo[1,4]oxazin-6-yl)-propyl]-biphenyl-3-carboxylic acid]",1.5
12,"CCOC(=O)C1CCN(c2ccc([C@H](C)[C@](O)(c3ccc4c(c3)N(C)C(=O)CO4)C(F)(F)F)c(Cl)c2)CC1 (stereo in doubt) [Example 42, 1-{3-Chloro-4-[3,3,3-trifluoro-2-hydroxy-1-methyl-2-(4-methyl-3-oxo-3,4-dihydro-2H-benzo[1,4]oxazin-6-yl)-propyl]-phenyl}-piperidine-4-carboxylic acid ethyl ester]",4
13,"C[C@@H](c1ccc(-c2ccc(F)c(OCC(=O)O)c2)cc1Cl)[C@](O)(c1cc(F)c2c(c1)N(C)C(=O)CO2)C(F)(F)F (stereo in doubt) [Example 48, {3′-Chloro-4-fluoro-4′-[3,3,3-trifluoro-2-(8-fluoro-4-methyl-3-oxo-3,4-dihydro-2H-benzo[1,4]oxazin-6-yl)-2-hydroxy-1-methyl-propyl]-biphenyl-3-yloxy}-acetic acid]",1.3
14,"COC(=O)c1ccc(-c2ccc([C@H](C)[C@](O)(c3ccc(=O)n4ccccc34)C(F)(F)F)c(Cl)c2)cc1F (stereo in doubt) [Example 49, 3′-Chloro-3-fluoro-4′-[3,3,3-trifluoro-2-hydroxy-1-methyl-2-(4-oxo-4H-quinolizin-1-yl)-propyl]-biphenyl-4-carboxylic acid methyl ester]",16
15,"C[C@@H](c1ccc(-c2ccc(C(=O)O)c(F)c2)cc1Cl)[C@](O)(c1ccc(=O)n2ccccc12)C(F)(F)F (stereo in doubt) [Example 50, 3′-Chloro-3-fluoro-4′-[3,3,3-trifluoro-2-hydroxy-1-methyl-2-(4-oxo-4H-quinolizin-1-yl)-propyl]-biphenyl-4-carboxylic acid]",48.7
16,"COC(=O)c1ccc(-c2ccc([C@@H](C)[C@@](O)(c3cnc4c(c3)N(C)C(=O)CO4)C(F)(F)F)c(Cl)c2)cc1F (stereo in doubt) [Example 51, 3′-Chloro-3-fluoro-4′-[3,3,3-trifluoro-2-hydroxy-1-methyl-2-(1-methyl-2-oxo-2,3-dihydro-1H-pyrido[2,3-b][1,4]oxazin-7-yl)-propyl]-biphenyl-4-carboxylic acid methyl ester]",20.8
17,"C[C@H](c1ccc(-c2ccc(C(=O)O)c(F)c2)cc1Cl)[C@@](O)(c1cnc2c(c1)N(C)C(=O)CO2)C(F)(F)F (stereo in doubt) [Example 52, 3′-Chloro-3-fluoro-4′-[3,3,3-trifluoro-2-hydroxy-1-methyl-2-(1-methyl-2-oxo-2,3-dihydro-1H-pyrido[2,3-b][1,4]oxazin-7-yl)-propyl]-biphenyl-4-carboxylic acid]",122
18,"C[C@H](c1ccc(-c2ccc(C(=O)O)c(F)c2)cc1Cl)[C@@](O)(c1cccc2c1OCC(=O)N2C)C(F)(F)F (stereo in doubt) [Example 54, 3′-Chloro-3-fluoro-4′-[3,3,3-trifluoro-2-hydroxy-1-methyl-2-(4-methyl-3-oxo-3,4-dihydro-2H-benzo[1,4]oxazin-8-yl)-propyl]-biphenyl-4-carboxylic acid]",281
19,"C=CCN1C(=O)COc2ccc([C@](O)([C@H](C)c3ccc(-c4ccc(C(=O)OC)c(F)c4)cc3Cl)C(F)(F)F)cc21 (stereo in doubt) [Example 70, 4′-[2-(4-Allyl-3-oxo-3,4-dihydro-2H-benzo[1,4]oxazin-6-yl)-3,3,3-trifluoro-2-hydroxy-1-methyl-propyl]-3′-chloro-3-fluoro-biphenyl-4-carboxylic acid methyl ester]",278
20,"C[C@H](c1ccc(-c2ccc(F)c(C(=O)O)c2)cc1Cl)[C@@](O)(c1ccc2c(c1)n(C)c(=O)n2C)C(F)(F)F (stereo in doubt) [Example 74, 3′-Chloro-4′-[2-(1,3-dimethyl-2-oxo-2,3-dihydro-1H-benzoimidazol-5-yl)-3,3,3-trifluoro-2-hydroxy-1-methyl-propyl]-4-fluoro-biphenyl-3-carboxylic acid]",1.7
21,"C[C@H](c1ccc(-c2ccc(C(=O)O)c(Cl)c2)cc1Cl)[C@@](O)(c1ccc2c(c1)n(C)c(=O)n2C)C(F)(F)F (stereo in doubt) [Example 76, 3,3′-Dichloro-4′-[2-(1,3-dimethyl-2-oxo-2,3-dihydro-1H-benzoimidazol-5-yl)-3,3,3-trifluoro-2-hydroxy-1-methyl-propyl]-biphenyl-4-carboxylic acid]",1
22,"C[C@H](c1ccc(-c2ccc(C(=O)O)cc2)cc1Cl)[C@@](O)(c1ccc2c(c1)n(C)c(=O)n2C)C(F)(F)F (stereo in doubt) [Example 77, 3′-Chloro-4′-[2-(1,3-dimethyl-2-oxo-2,3-dihydro-1H-benzoimidazol-5-yl)-3,3,3-trifluoro-2-hydroxy-1-methyl-propyl]-biphenyl-4-carboxylic acid]",2.4
